# Results: US8071776B2, “Thienopyridines as allosteric potentiators of the M4 muscarinic receptor” (Eli Lilly and Company, priority 2004, dated 2011)
# “And” between values parts separate entries of the source, which are not always exact repeats. Identical values can stand only once.
# Columns and labels:
# Male Fisher-344 rats = test: Conditioned avoidance response; assay type: in vivo, rat
# From the text: The apparatus is a Coulbourn Instruments shuttle operant chamber. Each session equals a total of 50 trials, presented on a 30 second inter-trial interval, and each trial begins with simultaneous illumination of a houselight and rising of a guillotine door. The rat is given 10 seconds to cross over to the other side (an avoidance response) before a 1 mA footshock is initiated. The shock remains on until the rat crosses over to the other side (an escape response) or 10 seconds has elapsed (an escape failure). […] The number of avoidance, escape and escape failure responses during each session is recorded and used for analysis.
# Each test compound is administered orally 2 hours prior to testing. Oxo (0.03 mg/kg) is administered subcutaneously 30 minutes prior to testing. Data are analyzed via a one-way (within-group design) Analysis of Variance (ANOVA). In cases of a significant ANOVA (p<0.05), post-hoc comparisons may be made in which compound doses are compared back to the Oxo alone group (paired t-test).
# hM4 receptors = target: T1, hM4 receptors (Homo sapiens, UniProt P08173); test: Calcium mobilization (FLIPR), ACh concentration-response curves, AV12 Gα15 hM4 cells; assay type: cell-based
# T1 construct: expressed in transfected cells
# T1 sequence (P08173 1-479): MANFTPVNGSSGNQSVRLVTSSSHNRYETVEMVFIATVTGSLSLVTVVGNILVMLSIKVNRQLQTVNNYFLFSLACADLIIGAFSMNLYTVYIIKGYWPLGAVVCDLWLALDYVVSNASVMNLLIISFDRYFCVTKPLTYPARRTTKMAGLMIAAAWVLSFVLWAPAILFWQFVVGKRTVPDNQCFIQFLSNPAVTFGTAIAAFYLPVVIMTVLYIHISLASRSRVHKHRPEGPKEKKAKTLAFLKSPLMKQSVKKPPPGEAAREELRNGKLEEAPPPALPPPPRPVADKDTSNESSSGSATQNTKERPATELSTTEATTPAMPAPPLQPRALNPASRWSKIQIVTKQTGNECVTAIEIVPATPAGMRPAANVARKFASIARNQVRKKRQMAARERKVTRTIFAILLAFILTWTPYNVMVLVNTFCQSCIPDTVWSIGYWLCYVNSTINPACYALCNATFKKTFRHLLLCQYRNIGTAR
# Description: (§1) Automated multiple compound additions are timed by computer program. Cells are pre-incubated with increasing concentration of compounds.
# hM1 receptors = target: T2, hM1 receptors (Homo sapiens, UniProt P11229); test: Calcium mobilization (FLIPR), ACh concentration-response curves, CHO hM1 cells; assay type: cell-based; conditions: CHO cells stably expressing hM1
# T2 construct: expressed in transfected cells
# T2 sequence (P11229 1-460): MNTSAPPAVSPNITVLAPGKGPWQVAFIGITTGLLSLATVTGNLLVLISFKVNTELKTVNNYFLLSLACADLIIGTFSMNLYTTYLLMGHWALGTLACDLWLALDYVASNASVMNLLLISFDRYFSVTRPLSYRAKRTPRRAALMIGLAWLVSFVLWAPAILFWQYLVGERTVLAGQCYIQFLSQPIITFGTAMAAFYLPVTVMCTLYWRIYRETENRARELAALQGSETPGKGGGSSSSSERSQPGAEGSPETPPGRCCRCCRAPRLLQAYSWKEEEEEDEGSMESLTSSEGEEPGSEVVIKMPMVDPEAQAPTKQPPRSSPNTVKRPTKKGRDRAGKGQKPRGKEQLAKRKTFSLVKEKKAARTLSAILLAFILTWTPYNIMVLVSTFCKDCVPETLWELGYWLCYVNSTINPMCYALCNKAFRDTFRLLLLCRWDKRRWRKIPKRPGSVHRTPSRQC
# Description: as §1
# hM3 receptors = target: T3, hM3 receptors (Homo sapiens, UniProt P20309); test: Calcium mobilization (FLIPR), ACh concentration-response curves, CHO hM3 cells; assay type: cell-based; conditions: CHO cells stably expressing hM3
# T3 construct: expressed in transfected cells
# Description: as §1
# hM5 receptors = target: T4, hM5 receptors (Homo sapiens, UniProt P08912); test: Calcium mobilization (FLIPR), ACh concentration-response curves, CHO hM5 cells; assay type: cell-based; conditions: CHO cells stably expressing hM5
# T4 construct: expressed in transfected cells
# T4 sequence (P08912 1-532): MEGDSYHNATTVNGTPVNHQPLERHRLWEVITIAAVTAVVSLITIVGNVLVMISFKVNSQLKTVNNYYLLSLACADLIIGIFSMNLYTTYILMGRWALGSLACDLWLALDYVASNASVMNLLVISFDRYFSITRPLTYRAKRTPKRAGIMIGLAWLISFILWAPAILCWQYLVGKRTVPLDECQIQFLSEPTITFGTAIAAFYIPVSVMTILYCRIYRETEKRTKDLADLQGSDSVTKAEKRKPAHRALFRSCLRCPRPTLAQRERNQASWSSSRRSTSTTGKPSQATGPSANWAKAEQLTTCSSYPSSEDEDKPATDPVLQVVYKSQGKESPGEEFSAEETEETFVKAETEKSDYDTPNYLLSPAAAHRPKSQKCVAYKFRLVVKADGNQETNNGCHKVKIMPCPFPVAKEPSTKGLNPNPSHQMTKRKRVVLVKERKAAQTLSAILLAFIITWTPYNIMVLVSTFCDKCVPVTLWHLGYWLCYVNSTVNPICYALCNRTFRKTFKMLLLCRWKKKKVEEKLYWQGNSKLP
# Description: as §1
# hM2 receptors = hM2 receptors (Homo sapiens, UniProt P08172); conditions: AV12 Gα15 hM2; too modest to be accurately estimated
# Chain of hM2 receptors (P08172 whole entry): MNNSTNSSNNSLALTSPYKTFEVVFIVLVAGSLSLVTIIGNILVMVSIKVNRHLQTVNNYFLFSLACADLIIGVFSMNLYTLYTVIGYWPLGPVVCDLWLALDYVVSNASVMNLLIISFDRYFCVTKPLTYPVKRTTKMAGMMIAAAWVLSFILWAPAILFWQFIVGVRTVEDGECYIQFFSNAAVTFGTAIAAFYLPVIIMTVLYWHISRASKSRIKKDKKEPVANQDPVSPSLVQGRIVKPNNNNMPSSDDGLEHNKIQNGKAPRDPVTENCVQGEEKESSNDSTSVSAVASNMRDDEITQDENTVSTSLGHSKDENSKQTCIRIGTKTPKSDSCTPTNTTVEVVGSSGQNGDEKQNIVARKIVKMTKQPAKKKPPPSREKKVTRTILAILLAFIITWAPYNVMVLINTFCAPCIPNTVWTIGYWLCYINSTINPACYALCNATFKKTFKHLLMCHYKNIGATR
# Description: Using a calcium-sensitive fluorescent dye, agonist or potentiation activity of a given compound can be detected in a single assay using a Fluorescence Light Imaging Plate Reader (FLIPR) instrument. Cells are plated in Poly-D-Lysine coated black plates/clear bottom (Becton Dickinsons) at 40,000 cells per ml (100 μl/well) in growth media 24 hours prior to running the assay. The medium is removed before the addition of 50 μl fluorescence dye solution (HBSS containing 20 mM Hepes, 10 μM Fluo-3-AM, 0.05% pluronic acid F127; supplemented with 2.5 mM probenecid for CHO cell assays). The cells are incubated with the dye for 75 minutes before replacing with assay buffer (20 mM Hepes in Hanks balanced salt solution (Gibco); supplemented with 2.5 mM probenecid for CHO cells). The plate is transferred to the FLIPR machine (Molecular Devices) for fluorescence recordings. The cells are periodically excited by 488 nm light, and the emitted fluorescent light passed through a 510-570 nm filter and then detected by a cooled CCD camera. Automated multiple compound additions are timed by computer program. Cells are pre-incubated with increasing concentration of compounds. After 2 minutes, a range of acetylcholine concentrations is added to each concentration of compound. […]
# T3 sequence (P20309 whole entry): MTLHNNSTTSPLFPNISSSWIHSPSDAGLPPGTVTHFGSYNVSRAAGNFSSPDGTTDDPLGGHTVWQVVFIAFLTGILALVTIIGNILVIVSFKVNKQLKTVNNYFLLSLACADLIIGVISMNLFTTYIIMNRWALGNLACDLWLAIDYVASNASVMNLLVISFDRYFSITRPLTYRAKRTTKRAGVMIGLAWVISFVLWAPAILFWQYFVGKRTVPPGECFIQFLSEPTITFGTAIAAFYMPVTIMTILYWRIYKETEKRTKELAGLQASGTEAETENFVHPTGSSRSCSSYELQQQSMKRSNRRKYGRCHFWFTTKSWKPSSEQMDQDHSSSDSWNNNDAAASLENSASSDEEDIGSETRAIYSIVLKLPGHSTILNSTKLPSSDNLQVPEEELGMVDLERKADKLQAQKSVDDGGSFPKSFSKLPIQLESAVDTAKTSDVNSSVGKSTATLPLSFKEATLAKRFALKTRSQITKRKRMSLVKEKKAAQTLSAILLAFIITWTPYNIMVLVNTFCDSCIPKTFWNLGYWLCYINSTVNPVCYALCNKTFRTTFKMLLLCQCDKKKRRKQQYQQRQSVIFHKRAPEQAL
molecule,measurement,setting,value
"Cc1c(Cl)c(OCCN2CCOCC2)nc2sc(C(=O)NC3CC3)c(N)c12 [Example 6, 3-Amino-5-chloro-4-methyl-6-(2-morpholin-4-yl-ethoxy)-thieno[2,3-b]pyridine-2-carboxylic acid cyclopropylamide]","Percent Avoidance Response (Mean ± S.E.M.), Oxo + Test Compound 10 mg/kg","Male Fisher-344 rats; test compound 10 mg/kg orally 2 hours prior, Oxo 0.03 mg/kg s.c. 30 minutes prior",90 ± 3.4%
"COc1nc2sc(C(=O)NC3CC3)c(N)c2c(C)c1Cl [Example 1, 3-Amino-5-chloro-6-methoxy-4-methyl-thieno[2,3-b]pyridine-2-carboxylic acid cyclopropylamide]",Kd,hM4 receptors,200 ± 42 nM
same,potentiation of acetylcholine versus carbachol,"hM4 receptors; FLIPR, both non-selective full muscarinic agonists, receptor subtype not given",potentiated in an equivalent fashion
same,cooperatively factor for hM4 receptors,"hM4 receptors; estimated, FLIPR, ACh curves, AV12 Gα15 hM4, duplicates, at least three experiments",34.5±3.5
same,allosteric effect on ACh response,hM1 receptors,No significant allosteric effect
same,allosteric effect on ACh response,hM3 receptors,No significant allosteric effect
same,allosteric effect on ACh response,hM5 receptors,No significant allosteric effect
same,allosteric effect on ACh response,hM2 receptors,modest allosteric effect
oxotremorine sesquifumarate,"Percent Avoidance Response (Mean ± S.E.M.), Oxo alone","Male Fisher-344 rats; Oxo 0.03 mg/kg subcutaneously 30 minutes prior to testing, first Oxo alone group",93 ± 1.8% and 93 ± 1.2% and 89 ± 3.8% and 92 ± 1.5%
same,"Percent Avoidance Response (Mean ± S.E.M.), Oxo alone (retest)","Male Fisher-344 rats; retest of Oxo alone, 0.03 mg/kg subcutaneously 30 minutes prior to testing, 0.03 mg/kg",91 ± 0.9% and 90 ± 2.5% and 89 ± 3.2% and 91 ± 2.0%
Cc1c(Cl)c(OCC(=O)N2CCN(C)CC2)nc2sc(C(=O)NC3CC3)c(N)c12 [Example 10],"Percent Avoidance Response (Mean ± S.E.M.), Oxo + Test Compound 10 mg/kg","Male Fisher-344 rats; rat, in vivo",85 ± 5.3%
"Cc1c(Cl)c(OCCN2CCOCC2)nc2sc(C(=O)NC3CC3)c(N)c12.Cl [Example 28, 3-Amino-5-chloro-4-methyl-6-(2-morpholin-4-yl-ethoxy)-thieno[2,3-b]pyridine-2-carboxylic acid cyclopropylamide hydrochloride]","Percent Avoidance Response (Mean ± S.E.M.), Oxo + Test Compound 30 mg/kg","Male Fisher-344 rats; test compound 30 mg/kg orally 2 hours prior, Oxo 0.03 mg/kg s.c. 30 minutes prior",84 ± 6.3%
